Measurements as given in patent publication US20230172204A1 (BASF SE, priority 2020, published 2023).

Key:
[1] = tested on: Phakopsora pachyrhizi (F129L); test: Protective control of soybean rust on soybeans (PHAKPA P2); type: in vivo; conditions: soybean rust F129L; for % PHAKPA (F129L) Disease level P2 at 4 ppm: protective P2, 4 ppm; for % PHAKPA (F129L) Disease level P2 at 16 ppm: protective P2, 16 ppm
[2] = tested on: Phakopsora pachyrhizi (F129L); test: Protective control of soybean rust on soybeans (PHAKPA P6); type: in vivo; conditions: soybean rust F129L; for % PHAKPA (F129L) Disease level P6 at 4 ppm: protective P6, 4 ppm; for % PHAKPA (F129L) Disease level P6 at 16 ppm: protective P6, 16 ppm

Row | Structure (SMILES) | % PHAKPA (F129L) Disease level P2 at 4 ppm [1] [%] | % PHAKPA (F129L) Disease level P2 at 16 ppm [1] [%] | % PHAKPA (F129L) Disease level P6 at 4 ppm [2] [%] | % PHAKPA (F129L) Disease level P6 at 16 ppm [2] [%]
1 | CNC(=O)/C(=N/OC)c1cccc(C)c1CO/N=C(\C)c1ccc(OC(F)(F)F)cc1C(F)(F)F [compound 363] | 29 | 1 | 25 | 2
2 | CO/N=C(/C(=O)OC)c1cccc(C)c1CO/N=C(\C)c1c(F)cccc1C(F)(F)F [compound 365] | 77 | 15 | 97 | 43
3 | CO/N=C(/C(=O)OC)c1cccc(C)c1CO/N=C(\C)c1c(F)ccc(F)c1OC(F)(F)F [compound 366] | 53 | 13 | 83 | 12
4 | CO/N=C(/C(=O)OC)c1cccc(C)c1CO/N=C(\C)c1c(F)cc(Br)cc1C(F)(F)F [compound 368] | 83 | 47 | 90 | 73
5 | CNC(=O)/C(=N/OC)c1cccc(C)c1CO/N=C(\C)c1ccccc1C(C)(F)F [compound 372] | 85 | 26 | 85 | 16
6 | CO/N=C(/C(=O)OC)c1cccc(C)c1CO/N=C(\C)c1ccc(OC)cc1OC(F)(F)F [compound 373] | 77 | 27 | 100 | 38
7 | CNC(=O)/C(=N/OC)c1cccc(C)c1CO/N=C(\C)c1ccc(Cl)cc1OC(F)(F)F [compound 375] | 47 | 8 | 40 | 6
8 | CNC(=O)/C(=N/OC)c1cccc(C)c1CO/N=C(\C)c1ccc(F)cc1OC(F)(F)F [compound 378] | 18 | 1 | 17 | 1
9 | CNC(=O)/C(=N/OC)c1cccc(C)c1CO/N=C(\CC(F)(F)F)c1ccccc1 [compound 380] | 53 | 5 | 60 | 12
10 | CCC/C(=N\OCc1c(C)cccc1/C(=N\OC)C(=O)OC)c1ccccc1 [compound 387] | 60 | 30 | 80 | 47
11 | CCC/C(=N\OCc1c(C)cccc1/C(=N\OC)C(=O)NC)c1ccccc1 [compound 388] | 1 | 0 | 3 | 0
12 | CNC(=O)/C(=N/OC)c1cccc(C)c1CO/N=C(/c1ccccc1)C(C)C [compound 389] | 28 | 4 | 43 | 3
13 | CO/C=C(/C(=O)OC)c1cccc(C)c1CO/N=C(\C)c1c(F)cccc1C(F)(F)F [compound 390] | 22 | 0 | 18 | 2
14 | CNC(=O)/C(=N/OC)c1cccc(C)c1CO/N=C(\CC(F)(F)F)c1ccccc1C [compound 393] | 93 | 55 | 93 | 42
15 | CNC(=O)/C(=N/OC)c1cccc(C)c1CO/N=C(\C)c1ccc(F)cc1CC(F)(F)F [compound 394] | 9 | 3 | 12 | 2
16 | CO/N=C(/C(=O)OC)c1cccc(Br)c1CO/N=C(\C)c1ccccc1 [compound 395] | 43 | 4 | 67 | 18
17 | CNC(=O)/C(=N/OC)c1cccc(Br)c1CO/N=C(\C)c1ccccc1 [compound 396] | 3 | 0 | 4 | 0
18 | C=C(C)c1cccc(/C(=N\OC)C(=O)NC)c1CO/N=C(\C)c1ccccc1 [compound 399] | 67 | 8 | 90 | 15
